Laboratory results from ChEMBL document CHEMBL5143511, “Positioning of an unprecedented 1,5-oxaza spiroquinone scaffold into SMYD2 inhibitors in epigenetic space” (Eur J Med Chem, 2022).
pIC50: −log10 of the molar value.

Columns and labels:
[1] = target: T1, N-lysine methyltransferase SMYD2 (Homo sapiens, UniProt Q9NRG4); assay: Inhibition of SMYD2 (unknown origin) using 3H-SAM as substrate incubated for 1 hr by filter binding method
[2] = target: T1, N-lysine methyltransferase SMYD2; assay: Inhibition of SMYD2 (unknown origin) assessed as residual activity at 10 uM using 3H-SAM as substrate incubated for 1 hr by filter binding method relative to control
[3] = target: Glycogen synthase kinase-3 beta (Homo sapiens, UniProt P49841); assay: Inhibition of GSK3beta (unknown origin)
Glycogen synthase kinase-3 beta, sequence (P49841 whole entry): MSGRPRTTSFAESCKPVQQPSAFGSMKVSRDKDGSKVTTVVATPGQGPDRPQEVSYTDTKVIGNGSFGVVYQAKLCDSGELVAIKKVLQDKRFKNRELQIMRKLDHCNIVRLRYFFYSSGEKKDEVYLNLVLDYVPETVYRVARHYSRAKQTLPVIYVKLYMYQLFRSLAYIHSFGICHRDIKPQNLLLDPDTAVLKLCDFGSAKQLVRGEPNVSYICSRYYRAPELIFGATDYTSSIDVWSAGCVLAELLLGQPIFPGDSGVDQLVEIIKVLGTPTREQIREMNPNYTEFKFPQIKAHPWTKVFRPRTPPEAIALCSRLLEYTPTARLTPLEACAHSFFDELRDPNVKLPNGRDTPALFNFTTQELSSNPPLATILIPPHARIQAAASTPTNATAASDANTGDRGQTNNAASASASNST

Ca-Ski = assay: cells; type: functional, cell-based; conditions: Homo sapiens, 72 h
Description: Antiproliferative activity against human Ca-Ski cells assessed as inhibition of cell growth incubated for 72 hrs by CellTiter-Glo luminescent cell viability assay

MDA-MB-231 = assay: Antiproliferative activity against human MDA-MB-231 cells assessed as inhibition of cell growth incubated for 72 hrs by CellTiter-Glo luminescent cell viability assay; type: functional, cell-based; conditions: MDA-MB-231, 72 h

T1 sequence (Q9NRG4 whole entry): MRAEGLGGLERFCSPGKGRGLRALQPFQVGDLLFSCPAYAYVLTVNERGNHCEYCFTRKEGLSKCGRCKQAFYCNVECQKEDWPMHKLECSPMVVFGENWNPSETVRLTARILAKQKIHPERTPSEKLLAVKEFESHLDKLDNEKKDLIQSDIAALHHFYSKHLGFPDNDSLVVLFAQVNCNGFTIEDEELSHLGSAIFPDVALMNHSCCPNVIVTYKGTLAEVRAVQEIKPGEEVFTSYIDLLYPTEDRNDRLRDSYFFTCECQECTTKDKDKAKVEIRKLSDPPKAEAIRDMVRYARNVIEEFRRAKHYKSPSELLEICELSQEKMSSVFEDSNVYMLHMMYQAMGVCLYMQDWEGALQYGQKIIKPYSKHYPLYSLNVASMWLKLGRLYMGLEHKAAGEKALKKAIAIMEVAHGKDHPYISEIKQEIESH

Row | SMILES | pIC50 [1] | Activity [2] | pIC50 [3] | pIC50 (Ca-Ski) | pIC50 (MDA-MB-231)
1 | CN1C(=O)C(CCNc2ccc(F)cc2)COC12C=CC(=O)C=C2 (stereo unspecified) | 4.94 | 20.6% |  |  | 
2 | CN1C(=O)C(CCO[Si](c2ccccc2)(c2ccccc2)C(C)(C)C)COC12C=CC(=NNc1ccccc1)C=C2 (stereo unspecified) | 5.24 |  |  |  | 
3 | COc1ccc(N2CCCCC2)c(NCCC2COC3(C=CC(=O)C=C3)N(C)C2=O)c1 (stereo unspecified) | 5.26 | 14.2% |  |  | 
4 | CC(C)N1C(=O)C(Cc2ccc(C#N)cc2)COC12C=CC(=O)C=C2 (stereo unspecified) | < 4.70 | 80.7% |  |  | 
5 | CC(C)N1C(=O)C(Cc2ccccc2CS(=O)(=O)c2ccccc2)COC12C=CC(=O)C=C2 (stereo unspecified) | < 4.70 | 50.4% |  |  | 
6 | O=C1C=CC2(C=C1)OCC(Cc1cn(-c3cccc(Cc4ccccc4)c3)nn1)C(=O)N2c1ccccc1 (stereo unspecified) | 5.51 |  | 5.82 |  | 
7 | CC(C)N1C(=O)C(Cc2ccc(C(F)(F)F)cc2)COC12C=CC(=O)C=C2 (stereo unspecified) | < 4.70 | 33.8% |  |  | 
8 | CN1C(=O)C(CCNc2ccccc2)COC12C=CC(=O)C=C2 (stereo unspecified) | < 4.70 | 45.1% |  |  | 
9 | CN1C(=O)C(CCNc2cccnc2)COC12C=CC(=O)C=C2 (stereo unspecified) | < 4.70 | 74.2% |  |  | 
10 | CN1C(=O)C(CCNc2cc(F)cc(C(F)(F)F)c2)COC12C=CC(=O)C=C2 (stereo unspecified) | 5.12 | 53.5% |  |  | 
11 | CN1C(=O)C(CCNc2ccc(Cl)c(Cl)c2)COC12C=CC(=O)C=C2 (stereo unspecified) | 5.42 | 12.6% |  |  | 
12 | CC1COC2(C=CC(=O)C=C2)N(C(C)C)C1=O (stereo unspecified) | < 4.70 | 96.5% |  |  | 
13 | O=C1C=CC2(C=C1)OCC(Cc1cc(C(F)(F)F)cc(C(F)(F)F)c1)C(=O)N2c1ccccc1 (stereo unspecified) | 4.73 |  |  | 6.06 | 5.79
14 | CN1C(=O)C(CCNc2cccc(Cc3ccccc3)c2)COC12C=CC(=O)C=C2 (stereo unspecified) | 5.21 | 13.6% |  |  | 
15 | CN1C(=O)C(CCNc2ccc(C(=O)c3ccccc3)cc2)COC12C=CC(=O)C=C2 (stereo unspecified) | < 4.70 | 44.6% |  |  | 
16 | CC(C)N1C(=O)C(Cc2cccc(Br)c2)COC12C=CC(=O)C=C2 (stereo unspecified) | < 4.70 | 42.5% |  |  | 
17 | CC(C)N1C(=O)C(Cc2c(F)cccc2C(F)(F)F)COC12C=CC(=O)C=C2 (stereo unspecified) | < 4.70 | 47.2% |  |  | 
18 | CN1C(=O)C(CCNc2cnc3ccccc3c2)COC12C=CC(=O)C=C2 (stereo unspecified) | < 4.70 | 64.6% |  |  | 
